The record followed here is patent publication US8859768B2, “Heteroaryls and uses thereof” (Millennium Pharmaceuticals, Inc., priority 2010, dated 2014).

T1 sequence (Q8NEB9 whole entry): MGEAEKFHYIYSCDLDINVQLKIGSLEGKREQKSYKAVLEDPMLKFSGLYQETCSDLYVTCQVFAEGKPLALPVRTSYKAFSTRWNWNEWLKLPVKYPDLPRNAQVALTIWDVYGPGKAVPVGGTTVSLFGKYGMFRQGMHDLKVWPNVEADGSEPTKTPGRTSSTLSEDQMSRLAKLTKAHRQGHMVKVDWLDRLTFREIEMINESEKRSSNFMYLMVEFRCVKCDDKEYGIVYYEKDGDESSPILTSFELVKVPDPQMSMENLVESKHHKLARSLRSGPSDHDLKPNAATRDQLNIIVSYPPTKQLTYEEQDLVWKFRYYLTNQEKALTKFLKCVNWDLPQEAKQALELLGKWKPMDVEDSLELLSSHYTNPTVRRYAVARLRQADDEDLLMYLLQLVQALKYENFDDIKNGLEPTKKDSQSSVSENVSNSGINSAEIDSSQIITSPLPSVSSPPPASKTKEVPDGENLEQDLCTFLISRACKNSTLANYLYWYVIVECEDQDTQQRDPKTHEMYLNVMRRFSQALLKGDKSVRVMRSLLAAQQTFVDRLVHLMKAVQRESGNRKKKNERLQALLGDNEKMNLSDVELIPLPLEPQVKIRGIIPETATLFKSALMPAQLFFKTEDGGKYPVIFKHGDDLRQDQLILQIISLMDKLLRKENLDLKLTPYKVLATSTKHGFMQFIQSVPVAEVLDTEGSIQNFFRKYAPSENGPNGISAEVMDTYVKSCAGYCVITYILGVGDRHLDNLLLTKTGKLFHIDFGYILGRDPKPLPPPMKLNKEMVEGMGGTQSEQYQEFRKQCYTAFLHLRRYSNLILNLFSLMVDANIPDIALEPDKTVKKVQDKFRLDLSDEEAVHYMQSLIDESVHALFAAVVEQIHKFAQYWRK

The assay concerns the target T1, Human VPS34 (Homo sapiens, UniProt Q8NEB9).
T1 construct: GST (N); host or cells: SF9 insect cells (baculovirus)
Description: Human VPS34 Enzyme Assay (Adapta TR-FRET). The class given is biochemical. The settings on record: compound at 1.111 μM; read-out: Average VPS34 % INH @ 1.111 μM. The procedure:
VPS34 (accession number GB:BC033004) was cloned into pDEST20-Thombin as N-terminal GST tagged fusion proteins using the Gateway system (Invitrogen, catalog#11804-013). The sequences were verified before recombinant protein expression using the Baculovirus Expression System with Gateway® Technology.
For expression VPS34 was infected at 1MOI in SF9 cells and harvested 72 hours post infection.
For purification, VPS34 is purified by Glutathione Sepharose 4 Fast Flow (GE Healthcare #17-5132-03) followed by HiTrap Q (GE Healthcare #17-1153-01).
Human VPS34 Enzyme Assay Method
100 nL compounds in DMSO are added to wells of a 384 well microtitre plate (Greiner 780076). At room temperature: 5 ul VPS34 reaction buffer (Invitrogen Assay Buffer Q (diluted 1 in 5 with nanopure water) plus 2 mM DTT and 2 mM MnCl2) containing ATP (20 uM, Promega) and 200 uM PI-PS substrate (Invitrogen PV5122) is added followed immediately by 5 ul VPS34 reaction buffer (as above) containing VPS34 (5 nM, Millennium Protein Sciences Group) and the mixture is incubated with shaking at room temperature for 1 hour. Then 5 ul VPS34 stop-detect mix (as per Invitrogen Adapta Assay kit (PV5009) instructions (contains kinase quench buffer, TR-FRET buffer, Adapta Eu anti-ADP antibody and Alexa Fluor 647 ADP tracer)) is added to quench the reaction. The plates are then incubated for 30 minutes at room temperature with shaking and then read on a BMG PheraStar Plus reader.
3) VPS34 is assayed using Adapta™ Universal Kinase Assay Kit (Invitrogen).
As for `CC(=O)Nc1cc(-c2nc(C(=O)NCCc3cn4ccccc4n3)c(-c3ccccc3Cl)o2)c(C)cn1` [Compound I-82, 2-(2-acetamido-5-methylpyridin-4-yl)-5-(2-chlorophenyl)-N-[2-(imidazo[1,2-a]pyridin-2-yl)ethyl]-1,3-oxazole-4-carboxamide], the inhibition at 1.111 µM came out at 68%. `CON(C)C(=O)c1cc(-c2cc(NC(C)=O)ncc2C)oc1-c1ccccc1Cl` [Compound I-46, 5-(2-acetamido-5-methylpyridin-4-yl)-2-(2-chlorophenyl)-N-methoxy-N-methyl-3-furamide]: the inhibition at 1.111 µM was found to be 89%. The value for `CC(=O)Nc1cc(-c2cc(C(N)=O)c(-c3ccccc3Cl)o2)ccn1` [Compound I-1, 5-[2-(acetylamino)pyridin-4-yl]-2-(2-chlorophenyl)-3-furamide] was 120%; that for `O=C(Cc1ccc(O)cc1)Nc1cc(-c2nc(-c3nnc[nH]3)c(-c3ccccc3Cl)o2)ccn1` [Compound I-58, N-{4-[5-(2-chlorophenyl)-4-(4H-1,2,4-triazol-3-yl)-1,3-oxazol-2-yl]pyridin-2-yl}-2-(4-hydroxyphenyl)acetamide] was 94%. Under `CCC(=O)Nc1cc(-c2nc(-c3nnc[nH]3)c(-c3ccccc3Cl)o2)ccn1` [Compound I-75, N-{4-[5-(2-chlorophenyl)-4-(4H-1,2,4-triazol-3-yl)-1,3-oxazol-2-yl]pyridin-2-yl}propanamide] stands 114%; under `CC(=O)Nc1cc(-c2nc(-c3ccccc3Cl)c(-c3nnc[nH]3)o2)c(C)cn1` [Compound I-39, N-{4-[4-(2-chlorophenyl)-5-(4H-1,2,4-triazol-3-yl)-1,3-oxazol-2-yl]-5-methylpyridin-2-yl}acetamide], 125%. Consider `CC(=O)Nc1cc(-c2cc(-c3nnc[nH]3)c(N3CCCS3(=O)=O)o2)c(C)cn1` [Compound I-17, N-{4-[5-(1,1-dioxidoisothiazolidin-2-yl)-4-(4H-1,2,4-triazol-3-yl)-2-furyl]-5-methylpyridin-2-yl}acetamide], for which the inhibition at 1.111 µM is 127%. Regarding `CC(=O)Nc1cc(-c2cc(C(=O)NC3CCC3)c(-c3ccccc3Cl)o2)c(C)cn1` [Compound I-14, 5-(2-acetamido-5-methylpyridin-4-yl)-2-(2-chlorophenyl)-N-cyclobutyl-3-furamide], the inhibition at 1.111 µM worked out at 88%. Under `CC(=O)Nc1cc(-c2nc(C(=O)NCc3ccccc3)c(-c3ccccc3Cl)o2)c(C)cn1` [Compound I-55, 2-(2-acetamido-5-methylpyridin-4-yl)-N-benzyl-5-(2-chlorophenyl)-1,3-oxazole-4-carboxamide] stands 20%; under `CC(=O)Nc1cc(-c2nc(C(=O)NCCn3ccnc3)c(-c3ccccc3Cl)o2)c(C)cn1` [Compound I-70, 2-(2-acetamido-5-methylpyridin-4-yl)-5-(2-chlorophenyl)-N-[2-(1H-imidazol-1-yl)ethyl]-1,3-oxazole-4-carboxamide], 45%; under `CC(=O)Nc1cc(-c2nc(-c3nnc[nH]3)c(-c3ccccc3Cl)o2)c(C)cn1` [Compound I-4, N-{4-[5-(2-chlorophenyl)-4-(4H-1,2,4-triazol-3-yl)-1,3-oxazol-2-yl]-5-methylpyridin-2-yl}acetamide], 118%. As for `CC(=O)Nc1cc(-c2cc(-c3cc[nH]n3)c(-c3ccccc3Cl)o2)c(C)cn1` [Compound I-48, N-{4-[5-(2-chlorophenyl)-4-(1H-pyrazol-3-yl)-2-furyl]-5-methylpyridin-2-yl}acetamide], the inhibition at 1.111 µM came to 130%.

In the case of `CC(=O)Nc1cc(-c2nc(N3CCCS3(=O)=O)c(-c3nnc[nH]3)o2)c(C)cn1` [Compound I-50, N-{4-[4-(1,1-dioxidoisothiazolidin-2-yl)-5-(4H-1,2,4-triazol-3-yl)-1,3-oxazol-2-yl]-5-methylpyridin-2-yl}acetamide], the inhibition at 1.111 µM was 115%.
